In patent publication US9540325B2, “N1-cyclic amine-N5-substituted phenyl biguanide derivatives, methods of preparing the same and pharmaceutical composition comprising the same” (Immunomet Therapeutics, Inc., priority 2011, dated 2017):
Counter-ions that a name gives are not always drawn.

What was measured:
[1] = tested on: AMPKα; experiment: Measurement of AMPK activation effect (AMPKα Thr172 phosphorylation immunoassay) in MCF7 cells; assay type: cell-based, human; settings: 24 hours; for AMPK activation effect at 10 μM (%) / AMPK activation effect at 50 μM (%): relative to untreated cells; for AMPK activation effect AC150: concentration at which AMPK activation reached 150%
Experimental: MCF7 cells derived from human breast cancer cells (commercially available from the Korean Cell Line Bank) were used, and the AMPK activation effect of the biguanide derivative was confirmed using an AMPKα immunoassay kit (Invitrogen, Catalog No. KHO0651).
MCF7 cells were cultured in a DMEM medium supplemented with 10% fetal bovine serum. Thereafter, the cultured MCF7 cells were put into a 6-well plate with approximately 5×10^5 cells per well and cultured in an incubator supplied with 5% CO2. Culture media were treated with the derivatives synthesized in the examples at contents of 5, 10 and 50 μM, and then cultured for 24 hours. Metformin hydrochloride was used as the control, and the culture media were treated with 0.05, 0.5, 1, 2, 5 and 10 mM metformin hydrochloride, and then tested in the same manner as described in the derivatives synthesized in the examples. Subsequently, the cells were lysed according to a method presented in the operation manual of the AMPKα immunoassay kit, and 20 μg of a cell lysate was then yielded through protein assay. Thereafter, the AMPK activation effect was obtained by determining the degree of phosphorylation of 172nd threonine residue (Thr172) of the AMPKα from the cell lysate according to the method presented in the operation manual of the AMPKα immunoassay kit. […] A curve graph showing AMPK activation according to the concentration of the treated compounds was plotted based on the obtained AMPKα activation results, the concentration (activation concentration 150, AC150) value of the compound whose AMPK activation reached 150% was calculated using a GraphPad Prism 5.0 program, and the degrees of AMPK activation were obtained when concentrations of the treated biguanide derivatives were 10 μM and 50 μM and the metformin hydrochloride was 50 μM

[2] = tested on: HCT116 cells; experiment: Measurement of effect of inhibiting cancer cell proliferation (MTT); assay type: cell-based, human; settings: for inhibition at 100 µM: HCT-116, 100 μM, read-out: Cell Growth Inhibition (%) at 100 μM
Excerpt: HCT116 cells derived from human colorectal cancer (commercially available from the Korean Cell Line Bank) were used, and the effect of inhibiting cancer cell proliferation of the biguanide derivative was confirmed by measuring the concentration value (cell growth inhibition concentration, GIC50) at which cell growth was inhibited by 50% using a 3-(4,5-dimethylthiazol-2-yl)-2,5-diphenyltetrazolium bromide (MTT) reagent.
First, HCT116 cells were put on a 96-well plate and cultured in a DMEM medium containing 10% fetal bovine serum for 16 hours so that the cellcount in each well was approximately 5,000. Subsequently, to obtain the GIC50 value of each compound, culture media were treated with 100 μM, 25 μM, 6.25 μM, 1.56 μM or 0.39 μM of the compound, and then cultured for 48 hours. Metformin hydrochloride was used as the control, and the culture media were treated with 25, 12.5, 2.5, 0.5, 0.1 mM metformin hydrochloride, and then tested in the same manner as described in the derivatives synthesized in the examples. In order to determine whether the cells survived after treatment with the compounds, MTT was added to the culture media which were then cultured for another 3 hours. Formed formazane crystals were dissolved using dimethyl sulfoxide (DMSO), and the absorbance of the resulting solution was measured at 560 nm. After the 48-hour culture, […] was indicated as cell viability (%) according to each treated concentration. A cell viability curve graph was plotted and the concentration (GIC50) value of the compound at which the growth was inhibited by 50% was calculated to confirm the inhibition effect of cancer cell proliferation. Also, the cell growth viability (%) when the concentration of the treated biguanide derivative and the metformin hydrochloride as the control were 100 μM was shown.

Structure (SMILES)	melting point	GI50 ([2]; Homo sapiens, HCT-116, 48 h)	AMPK activation effect at 10 μM (%) [1]	AMPK activation effect AC150 [1]	inhibition at 100 µM ([2]; Homo sapiens, 48 hours)	AMPK activation effect at 50 μM (%) [1]	Cell Growth Inhibition (%) at 100 μM ([2]; 100 μM, 48 hours)	GI50 ([2]; 48 hours)
N=C(NC(=N)N1CCCCC1)Nc1ccc(OC(F)(F)F)c(F)c1 (as salt: acetate) [Example 77, N1-piperidine-N5-(3-fluoro-4-trifluoromethoxy)phenyl biguanide acetate]	202 to 204 °C							
Cl.N=C(NC(=N)N1CCCC1)Nc1ccc(Cl)c(Cl)c1 [Example 63, N1-pyrrolidine-N5-(3,4-dichloro)phenyl biguanide hydrochloride]	282 to 283 °C	8.7 µM	261%	6.2 µM	97.6%			
N=C(NC(=N)N1CCCCC1)Nc1ccc(OC(F)(F)F)cc1 (as salt: acetate) [Example 73, N1-piperidine-N5-(4-trifluoromethoxy)phenyl biguanide acetate]	200 to 202 °C							
CN(C)c1ccc(NC(=N)NC(=N)N2CCCCC2)cc1.Cl [Example 37, N1-piperidine-N5-(4-dimethylamino)phenyl biguanide hydrochloride]	253 to 255 °C	> 100 µM	123%	13.9 µM	32.2%	286%		
Cl.N=C(NC(=N)N1CCC1)Nc1ccc(OC(F)(F)F)c(F)c1 [Example 52, N1-azetidine-N5-(3-fluoro-4-trifluoromethoxy)phenyl biguanide hydrochloride]	260 to 261 °C	19.8 µM	265%	3.3 µM	101%	740%		
Cl.N=C(NC(=N)N1CCOCC1)Nc1cccc(Br)c1 [Example 22, N1-morpholine-N5-(3-bromo)phenyl biguanide hydrochloride]	264 to 265 °C	> 100 µM	127%	2.3 µM	44.5%	119%		
Cl.N=C(NC(=N)N1CCC1)Nc1ccc(OC(F)(F)F)c(Cl)c1 [Example 55, N1-azetidine-N5-(3-chloro-4-trifluoromethoxy)phenyl biguanide hydrochloride]	254 to 255 °C	7.3 µM	342%	2.6 µM	101%			
Cl.N=C(NC(=N)N1CCC1)Nc1ccc(OC(F)(F)F)cc1 [Example 31, N1-azetidine-N5-(4-trifluoromethoxy)phenyl biguanide hydrochloride]	257 to 259 °C	22.9 µM	145%	15.3 µM	96.5%	232%		
N=C(NC(=N)N1CCCC1)Nc1ccc(OC(F)(F)F)c(F)c1 (as salt: acetate) [Example 76, N1-pyrrolidine-N5-(3-fluoro-4-trifluoromethoxy)phenyl biguanide acetate]	203 to 205 °C							
CS(=O)(=O)Nc1cccc(NC(=N)NC(=N)N2CCCCC2)c1.Cl [Example 41, N1-piperidine-N5-(3-methylsulfonamide)phenyl biguanide hydrochloride]	251 to 253 °C	> 100 µM	86%	>50 µM	18.8%	125%		
Cl.N=C(NC(=N)N1CCCCC1)Nc1ccc(S(N)(=O)=O)cc1 [Example 44, N1-piperidine-N5-(4-sulfamoyl)phenyl biguanide hydrochloride]		> 100 µM	119%	>50 µM	32.6%	114%		
Cl.N=C(NC(=N)N1CCCCC1)Nc1cccc(OC(F)F)c1 [Example 30, N1-piperidine-N5-(3-difluoromethoxy)phenyl biguanide hydrochloride]			187%	6.4 µM		636%	97.9%	33.7 µM
Cl.N=C(NC(=N)N1CCCCC1)Nc1ccc(S(=O)(=O)O)cc1 [Example 42, N1-piperidine-N5-(4-sulfonic acid)phenyl biguanide hydrochloride]		> 100 µM	68%	>50 µM	23.2%	97%		
N=C(NC(=N)N1CCCC1)Nc1ccc(C(F)(F)F)c(F)c1 (as salt: acetate) [Example 74, N1-pyrrolidine-N5-(3-fluoro-4-trifluoromethyl)phenyl biguanide acetate]	204 to 205 °C							
Cl.N=C(NC(=N)N1CCCC1)Nc1ccc(OC(F)(F)F)c(Cl)c1 [Example 56, N1-pyrrolidine-N5-(3-chloro-4-trifluoromethoxy)phenyl biguanide hydrochloride]		4.6 µM	367%	2.0 µM	101%			

More lines, main results first:

melting point	GI50 ([2]; Homo sapiens, HCT-116, 48 h)	Structure (SMILES)	AMPK activation effect at 10 μM (%) [1]	AMPK activation effect AC150 [1]	inhibition at 100 µM ([2]; Homo sapiens, 48 hours)	AMPK activation effect at 50 μM (%) [1]	Cell Growth Inhibition (%) at 100 μM ([2]; 100 μM, 48 hours)	GI50 ([2]; 48 hours)
260 to 261 °C	3.9 µM	Cl.N=C(NC(=N)N1CCCCC1)Nc1ccc(F)c(OC(F)(F)F)c1 [Example 50, N1-piperidine-N5-(4-fluoro-3-trifluoromethoxy)phenyl biguanide hydrochloride]	127%	>50 µM	97%			
263 to 264 °C	7 µM	Cl.N=C(NC(=N)N1CCCCC1)Nc1cccc(Br)c1 [Example 7, N1-piperidine-N5-(3-bromo)phenyl biguanide hydrochloride]	526%	0.9 µM	97.2%			
261 to 262 °C	2.6 µM	Cl.N=C(NC(=N)N1CCCCC1)Nc1ccc(OC(F)(F)F)c(Cl)c1 [Example 57, N1-piperidine-N5-(3-chloro-4-trifluoromethoxy)phenyl biguanide hydrochloride]	345%	3.2 µM	96.3%			
264 to 265 °C	6.9 µM	Cl.N=C(NC(=N)N1CCCCC1)Nc1cccc(C(F)(F)F)c1 [Example 24, N1-piperidine-N5-(3-trifluoromethyl)phenyl biguanide hydrochloride]	388%	2.6 µM	97.6%			
251 to 252 °C	1.9 µM	Cl.N=C(NC(=N)N1CCCCC1)Nc1ccc(Cl)c(OC(F)(F)F)c1 [Example 51, N1-piperidine-N5-(4-chloro-3-trifluoromethoxy)phenyl biguanide hydrochloride]	160%	7.8 µM	96.3%			
198 to 200 °C		N=C(NC(=N)N1CCCCC1)Nc1ccc(C(F)(F)F)cc1 (as salt: acetate) [Example 71, N1-piperidine-N5-(4-trifluoromethyl)phenyl biguanide acetate]						
206 to 208 °C		N=C(NC(=N)N1CCCCC1)Nc1ccc(C(F)(F)F)c(F)c1 (as salt: acetate) [Example 75, N1-piperidine-N5-(3-fluoro-4-trifluoromethyl)phenyl biguanide acetate]						
